Source: publication PMC4956231, “Molecular Mechanisms for Drug Hypersensitivity Induced by the Malaria Parasite’s Chloroquine Resistance Transporter” (PLoS Pathogens, 2016)
Marks after values point to notes of the source that are not given here.

How the values were obtained:
[1] = system: 76N-PfCRT^K1; assay: [3H]drug transport into Xenopus oocytes expressing PfCRT; format: cell-based, Plasmodium falciparum; conditions: transport via 76N-PfCRT^K1 in oocytes, CQ pH 6.0, quinine and quinidine pH 5.0
Method: (§1) For each treatment, 10 oocytes were transferred to a 5 mL polystyrene round bottom tube (Falcon) and washed twice with 3.5 mL of ND96 buffer, with the residual buffer removed by pipette. […] The assay was terminated by removing the reaction buffer with a pipette and washing the oocytes twice with 3.5 mL of ice-cold ND96 buffer. Each oocyte was transferred to a separate well of a white 96-well plate (NUNC or PerkinElmer), incubated overnight at room temperature in 30 μL of 10% SDS, and mixed on an orbital shaker the following day for approximately 5 min. The lysed oocyte was then combined with 150 μL of MicroScint-40 microscintillant (PerkinElmer), the plate covered with a TopSeal-A (PerkinElmer), and the radioactivity measured with a PerkinElmer MicroBeta^2 microplate liquid scintillation analyzer.
Note that noninjected oocytes and oocytes expressing PfCRT^3D7 take up [^3H]CQ to similar (low) levels via simple diffusion of the neutral species of the drug; this represents the ‘background’ level of [^3H]CQ accumulation in oocytes (refer to Martin et al. for full data and discussion).

[2] = system: P. falciparum line 106/1^76N; conditions: 106/1^76N (76N-PfCRT^K1); IC50 in line divided by IC50 in drug-sensitive reference strain; cited from earlier work
[3] = target: 76I,369F-PfCRT^K1 (Plasmodium falciparum, UniProt Q9N623, A220S/K76I/M74I/N326S/N75E/Q271E/R371I/V369F); assay: Inhibition of PfCRT-mediated [3H]CQ transport in oocytes; format: cell-based; conditions: via 76I,369F-PfCRT^K1 in oocytes
Sequence of 76I,369F-PfCRT^K1 (Q9N623 whole entry A220S/K76I/M74I/N326S/N75E/Q271E/R371I/V369F): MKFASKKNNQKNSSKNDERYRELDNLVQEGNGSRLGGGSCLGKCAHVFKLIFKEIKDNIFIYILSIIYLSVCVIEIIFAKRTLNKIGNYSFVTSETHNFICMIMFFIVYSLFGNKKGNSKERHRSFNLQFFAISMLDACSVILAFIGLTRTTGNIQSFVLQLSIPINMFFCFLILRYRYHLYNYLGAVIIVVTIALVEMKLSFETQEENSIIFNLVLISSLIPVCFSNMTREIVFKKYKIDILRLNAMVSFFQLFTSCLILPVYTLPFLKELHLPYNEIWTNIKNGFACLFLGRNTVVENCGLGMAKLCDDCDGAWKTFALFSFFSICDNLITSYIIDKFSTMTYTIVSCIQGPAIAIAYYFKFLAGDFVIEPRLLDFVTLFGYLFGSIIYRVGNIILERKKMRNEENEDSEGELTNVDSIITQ
Method: as §1
The IC50 values presented in Fig 3A were determined in SigmaPlot by a least-squares fit of the equation y = y min + [(y max—y min)/(1 + ([inhibitor]/IC50)c] to the data, where y is PfCRT-mediated CQ transport, y min and y max are the minimum and maximum values of y, and c is a fitted constant. PfCRT-mediated CQ transport was calculated by subtracting the uptake measured in the control oocytes (oocytes expressing 76K PfCRT^K1) from that in oocytes expressing 76I-PfCRT^K1 or 76I,369F-PfCRT^K1.

Row | SMILES | Apparent Vmax [1] | Km ([1]; read-out: Apparent Km) [µM] | Drug susceptibility (In vitro resistance index) [2] | IC50 [3] [µM]
1 | CCN(CC)CCCC(C)Nc1ccnc2cc(Cl)ccc12 (stereo not shown) [CQ, chloroquine] | 48.0 ± 4.5^c,f (7) pmol per oocyte/h | 303 ± 5 | 8.60 ± 0.90 | –
2 | NC12CC3CC(CC(C3)C1)C2 [amantadine] | – | – | – | 174 ± 26
